Experimental data as given in the supplement of paper PMC10627819.

Experiments:
[1] = tested on: S. aureus Newman; experiment: fitness (endpoint OD595 vs no drug) (fraction); higher = more growth
In short: (§1)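 At 37 °C, bacteria in TSB, LB Lennox or CY were grown in 384-well plates from a starting OD595 of 0.01. OD595 was measured every 30 min for 14 h, with the first reading used as background. Fitness is the optical density at the switch to stationary phase as a fraction of the robust mean of no-drug control wells, capped at 1.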

[2] = tested on: S. pneumoniae D39V; experiment: as above
In short: as §1

[3] = tested on: B. subtilis 168; experiment: as above
In short: as §1

[4] = tested on: S. aureus DSM 20231; experiment: as above
In short: as §1

[5] = tested on: S. aureus Newman; experiment: Bliss interaction score (quartile over a dose matrix) (fitness difference); higher = more antagonism (negative = synergy)
In short: (§2)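 The Bliss score is observed minus expected fitness, where expected fitness is the product of the single-drug fitness values inferred from the combination data. Fitness is the OD595 at the onset of stationary phase over the plate's robust no-drug mean, capped at 1. Scores are summarised by quartiles over technical, biological and donor/recipient replicates.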

[6] = tested on: S. pneumoniae D39V; experiment: as above
In short: as §2

[7] = tested on: B. subtilis 168; experiment: as above
In short: as §2

[8] = tested on: S. aureus DSM 20231; experiment: as above
In short: as §2
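For Bliss interaction score (quartile over a dose matrix) in this document: first quartile when negative (synergy) and third quartile when positive (antagonism).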
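For fitness (endpoint OD595 vs no drug) in this document: OD595 on entry to stationary phase over no-drug wells; at most 1.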

O=C(O[C@@H]1Cc2c(O)cc(O)cc2O[C@@H]1c1cc(O)c(O)c(O)c1)c1cc(O)c(O)c(O)c1 [EGCG] + CN(N=O)C(=O)N[C@@H](C=O)[C@@H](O)[C@H](O)[C@H](O)CO [Streptozotocin]
fitness
Settings | first compound 6.25 µg/mL | first compound 12.5 µg/mL | first compound 25 µg/mL | first compound 50 µg/mL
[1], partner 0.15 µg/mL | – | 0.711 | 0.804 | 0.783
[1], partner 0.3 µg/mL | – | 0.737 | 0.477 | 0.752
[1], partner 0.6 µg/mL | – | 0.404 | 0.416 | 0.572
[2], partner 1.2 µg/mL | – | 0.911 | 0.947 | 0.919
[2], partner 2.4 µg/mL | – | 0.891 | 0.935 | 0.91
[2], partner 4.8 µg/mL | – | 0.907 | ≥ 1 | ≥ 1
[3], partner 0.15 µg/mL | 0.913 | 0.571 | – | –
[3], partner 0.3 µg/mL | 0.856 | 0.62 | 0.449 | –
[3], partner 0.6 µg/mL | 0.915 | 0.515 | 0.391 | –
[4], partner 0.15 µg/mL | – | 0.763 | 0.702 | 0.683
[4], partner 0.3 µg/mL | – | 0.643 | 0.635 | 0.658
[4], partner 0.6 µg/mL | – | 0.597 | 0.595 | 0.499

Settings | Bliss interaction score
[5] | -0.0449
[6] | 0.0662
[7] | -0.0853
[8] | -0.0464

CCC[C@@H]1C[C@@H](C(=O)N[C@@H]([C@H]2O[C@H](SC)[C@H](O)[C@@H](O)[C@H]2O)[C@H](C)Cl)N(C)C1 [Clindamycin] + Cc1cc(NS(=O)(=O)c2ccc(N)cc2)no1 [Sulfamethoxazol]
fitness
Settings | partner 1 µg/mL | partner 2 µg/mL | partner 4 µg/mL
[1], first compound 0.0312 µg/mL | 0.757 | – | –
[1], first compound 0.125 µg/mL | 0.149 | – | –
[2], first compound 0.0125 µg/mL | 0.687 | 0.711 | 0.739
[2], first compound 0.025 µg/mL | 0.462 | 0.443 | 0.45
[2], first compound 0.05 µg/mL | 0.206 | 0.191 | 0.219
[3], first compound 0.0625 µg/mL | 0.571 | 0.544 | 0.579
[3], first compound 0.125 µg/mL | 0.422 | 0.395 | 0.431
[3], first compound 0.25 µg/mL | 0.33 | 0.321 | 0.332
[4], first compound 0.0625 µg/mL | 0.0971 | 0.0985 | 0.0862
[4], first compound 0.125 µg/mL | 0.0349 | 0.0282 | 0.0345

one replicate
Settings | fitness
[1], first compound 0.0312 µg/mL, partner 8 µg/mL | 0.896
[1], first compound 0.0625 µg/mL, partner 8 µg/mL | 0.934
[1], first compound 0.125 µg/mL, partner 8 µg/mL | 0.709
[2], first compound 0.015 µg/mL, partner 1 µg/mL | 0.873
[2], first compound 0.015 µg/mL, partner 2 µg/mL | 0.914
[2], first compound 0.015 µg/mL, partner 4 µg/mL | 0.812
[2], first compound 0.03 µg/mL, partner 1 µg/mL | 0.783
[2], first compound 0.03 µg/mL, partner 2 µg/mL | 0.777
[2], first compound 0.03 µg/mL, partner 4 µg/mL | 0.717
[2], first compound 0.06 µg/mL, partner 1 µg/mL | 0.64
[2], first compound 0.06 µg/mL, partner 2 µg/mL | 0.69
[2], first compound 0.06 µg/mL, partner 4 µg/mL | 0.621
[3], first compound 0.0039 µg/mL, partner 1 µg/mL | ≥ 1
[3], first compound 0.0039 µg/mL, partner 2 µg/mL | ≥ 1
[3], first compound 0.0039 µg/mL, partner 4 µg/mL | ≥ 1
[3], first compound 0.0078 µg/mL, partner 1 µg/mL | 0.884
[3], first compound 0.0078 µg/mL, partner 2 µg/mL | 0.853
[3], first compound 0.0078 µg/mL, partner 4 µg/mL | 0.868
[3], first compound 0.0156 µg/mL, partner 1 µg/mL | 0.866
[3], first compound 0.0156 µg/mL, partner 2 µg/mL | 0.981
[3], first compound 0.0156 µg/mL, partner 4 µg/mL | 0.907
[3], first compound 0.0625 µg/mL, partner 0.5 µg/mL | 0.666
[3], first compound 0.125 µg/mL, partner 0.5 µg/mL | 0.466
[3], first compound 0.25 µg/mL, partner 0.5 µg/mL | 0.363

Settings | Bliss interaction score
[5] | 0.0865
[6] | -0.0442
[7] | -0.0677
[8] | -0.0287
